From PubChem BioAssay AID328 (DTP/NCI, 2004)
Where “and” joins values, the source holds several entries; their conditions need not be identical. Identical values can stand only once. Toxic doses and inconclusive results are not listed.

Tested on: BDF1 mice, P388 leukemia ip, median survival T/C
Assay: NCI In Vivo Anticancer Drug Screen. Data for tumor model P388 Leukemia (intraperitoneal) in B6D2F1 (BDF1) mice
Details: endpoint: median survival time, higher = longer survival
In short: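 Steps: implant the tumour, treat one group with compound and another with vehicle, record survival, then divide treated by control.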

[1] = dose: 25.0 mg/kg/injection, schedule: Q01DX009 (ip), vehicle: saline with Tween-80
[2] = dose: 50.0 mg/kg/injection, schedule: Q01DX009 (ip), vehicle: saline with Tween-80
[3] = dose: 100.0 mg/kg/injection, schedule: Q01DX009 (ip), vehicle: saline with Tween-80
[4] = dose: 200.0 mg/kg/injection, schedule: Q04DX003 (ip), vehicle: saline with Tween-80
[5] = dose: 25.0 mg/kg/injection, schedule: Q01DX009 (ip), vehicle: saline
[6] = dose: 50.0 mg/kg/injection, schedule: Q01DX009 (ip), vehicle: saline

For CC(C)CNC(=O)C12CC3CC(CC(C3)C1)C2, which T/C (dose: 12.5 mg/kg/injection, schedule: Q01DX009 (ip), vehicle: saline with Tween-80) is on record?
The T/C was 104 % of control.

And the T/C [1]?
Its T/C is 107 % of control.

What about the T/C [2] of the same molecule?
Its T/C is 104 % of control.

What about the T/C [3] of the same molecule?
Its T/C is 101 % of control.

How did the T/C [4] turn out when CS(=O)(=O)OCC(=O)NCCNC(=O)COS(C)(=O)=O was run?
Its T/C is 152 % of control.

And the T/C (dose: 264.0 mg/kg/injection, schedule: Q04DX003 (ip), vehicle: saline with Tween-80)?
Its T/C is 160 % of control.

And the T/C (dose: 264.0 mg/kg/injection, schedule: Q04DX003 (ip), vehicle: saline)?
Its T/C is 165 % of control.

And the T/C (dose: 400.0 mg/kg/injection, schedule: Q04DX003 (ip), vehicle: saline with Tween-80)?
The T/C was 169 % of control and 180 % of control.

What about the T/C (dose: 400.0 mg/kg/injection, schedule: Q04DX003 (ip), vehicle: saline) of the same molecule?
Its T/C is 152 % of control.

And the T/C (dose: 600.0 mg/kg/injection, schedule: Q04DX003 (ip), vehicle: saline)?
Its T/C is 182 % of control.

O=C(O)CCNSc1ccccc1[N+](=O)[O-] was tested. Which T/C [2] did it give?
The T/C was 106 % of control.

And the T/C [3]?
Its T/C is 106 % of control.

With CN(C)P(=O)(N(C)C)N(C)CCN(C)P(=O)(N(C)C)N(C)C as the molecule, how does the T/C (dose: 12.5 mg/kg/injection, schedule: Q01DX009 (ip), vehicle: saline) read?
Its T/C is 108 % of control.

What about the T/C [5] of the same molecule?
Its T/C is 101 % of control.

And the T/C [6]?
The T/C was 101 % of control and 111 % of control.

CCCC(C)(C)SSC(C)(C)CCC was tested. Which T/C [1] did it give?
The T/C was 90 % of control.

And the T/C [2]?
Its T/C is 90 % of control and 100 % of control.

What about the T/C [3] of the same molecule?
The T/C was 95 % of control and 118 % of control.

What about the T/C (dose: 100.0 mg/kg/injection, schedule: Q04DX003 (ip), vehicle: saline with Tween-80) of the same molecule?
The T/C was 90 % of control.

And the T/C [4]?
Its T/C is 113 % of control.

Which results are given for CC(NCCCSc1ccccc1)C(O)c1ccc(O)cc1 (stereo unspecified)?
T/C [2]: 99 % of control and 100 % of control and 105 % of control; T/C [3]: 110 % of control and 114 % of control and 119 % of control

For O=C(O)c1cc[c]([Hg][S]c2ncnc3nc[nH]c23)cc1, which T/C (dose: 25.0 mg/kg/injection, schedule: Q01DX009 (ip), vehicle: suspension in saline) is on record?
The T/C was 119 % of control.

Which results are given for COC(=O)c1c(C(=O)OC)c1=[N+]=[N-]?
T/C [2]: 101 % of control; T/C [3]: 96 % of control; T/C (dose: 200.0 mg/kg/injection, schedule: Q01DX009 (ip), vehicle: saline with Tween-80): 99 % of control

What does the source list for Cc1nc2ccc(O)cc2cc1CO?
T/C [5]: 95 % of control; T/C [6]: 100 % of control; T/C (dose: 100.0 mg/kg/injection, schedule: Q01DX009 (ip), vehicle: saline): 99 % of control; T/C (dose: 200.0 mg/kg/injection, schedule: Q01DX009 (ip), vehicle: saline): 109 % of control; T/C (dose: 400.0 mg/kg/injection, schedule: Q01DX009 (ip), vehicle: saline): 111 % of control

For C=C1C(O)C2(O)OCC34C(CC5C(C)=CC(=O)C(O)C5(C)C23)OC(=O)C(O)C14 (stereo unspecified), which T/C (dose: 0.06 mg/kg/injection, schedule: Q01DX009 (ip), vehicle: saline) is on record?
The T/C was 95 % of control.

And the T/C (dose: 0.25 mg/kg/injection, schedule: Q01DX009 (ip), vehicle: saline)?
The T/C was 106 % of control.

And the T/C (dose: 1.0 mg/kg/injection, schedule: Q01DX009 (ip), vehicle: saline)?
The T/C was 98 % of control.

What does the source list for c1ccc(N=NC2=NN(c3ccccc3)CS2)cc1?
T/C [1]: 116 % of control; T/C [2]: 116 % of control

Which results are given for Cc1ccc(C(=Nc2ccccc2)c2ccccc2C)cc1?
T/C (dose: 100.0 mg/kg/injection, schedule: Q04DX002 (ip), vehicle: saline with Tween-80): 88 % of control and 100 % of control; T/C (dose: 200.0 mg/kg/injection, schedule: Q04DX002 (ip), vehicle: saline with Tween-80): 91 % of control; T/C (dose: 400.0 mg/kg/injection, schedule: Q04DX002 (ip), vehicle: saline with Tween-80): 86 % of control

How did the T/C (dose: 50.0 mg/kg/injection, schedule: Q04DX003 (ip), vehicle: Klucel (hydroxypropylcellulose) (HPC)) turn out when S=c1[nH]c2ccccc2s1 was run?
Its T/C is 109 % of control.

And the T/C (dose: 100.0 mg/kg/injection, schedule: Q01DX001 (ip), vehicle: Klucel (hydroxypropylcellulose) (HPC))?
The T/C was 100 % of control.

And the T/C (dose: 100.0 mg/kg/injection, schedule: Q04DX003 (ip), vehicle: Klucel (hydroxypropylcellulose) (HPC))?
The T/C was 100 % of control.

What about the T/C (dose: 200.0 mg/kg/injection, schedule: Q01DX001 (ip), vehicle: Klucel (hydroxypropylcellulose) (HPC)) of the same molecule?
Its T/C is 108 % of control.

What about the T/C (dose: 200.0 mg/kg/injection, schedule: Q04DX003 (ip), vehicle: Klucel (hydroxypropylcellulose) (HPC)) of the same molecule?
Its T/C is 100 % of control and 123 % of control.

What about the T/C (dose: 400.0 mg/kg/injection, schedule: Q01DX001 (ip), vehicle: Klucel (hydroxypropylcellulose) (HPC)) of the same molecule?
The T/C was 100 % of control.

And the T/C (dose: 400.0 mg/kg/injection, schedule: Q04DX003 (ip), vehicle: Klucel (hydroxypropylcellulose) (HPC))?
Its T/C is 96 % of control.
